Results on six compounds are retold here after publication PMC7414031, “Correlation between hemolytic activity, cytotoxicity and systemic in vivo toxicity of synthetic antimicrobial peptides” (Scientific Reports, 2020).

Broadly, the IC50 is the concentration that inhibits the measured activity by half. Read a high IC50 as weaker potency.

Data set [1] is described as follows: in vitro. It is filed as cell-based, human. Conditions: human. The protocol: (§1) The haemolytic activity of the 24 structurally related peptides (Table 1) was evaluated in erythrocytes from four different species (human, canine, bovine and rat) employing standard methodology. The subsequent release of haemoglobin was used to assess haemolytic activity as function of peptide and peptidomimetic concentration, with concentrations ranging from 0.15 to 150 µM (Presented in whole in Supplementary information Table S1–S4).
(§2) Human and rat (Sprague–Dawley) blood samples were purchased by Bioreclamation IVT (Westbury, NY, USA), collected in tubes containing heparin as anticoagulant and stored at 4 °C before use. Dog and bovine whole blood was collected from in-house animals at Zoetis Animal Health, Kalamazoo, Michigan and stored at 4 °C in tubes containing heparin as anticoagulant. 10 mL of each whole blood sample were centrifuged at 1,500 × g for 5 min and the resulting plasma fraction was removed from the samples. The pellets were washed with an equal volume (10 mL) of saline, mixing by inversion. The centrifuging and washing steps were repeated 5 times. After the last washing step, a volume of PBS was added, and the resulting samples were diluted 1:10 with PBS to yield an RBC concentration of ~ 5 × 10^8 RBC/mL. The assay was performed in a 384-well polypropylene microplate (Greiner 784201, Greiner Bio-One International, GMBH) through a Bravo Liquid Handling Platform 384 system (Agilent Technologies, Santa Clara, CA, USA) according to the previously published procedures. The compounds were tested in serial 1:1 dilutions in PBS, with final concentrations ranging from 150 to 1.2 µM. Melittin was used as reference lytic peptide. 1% TritonX100 and PBS were used as positive and negative (diluent) controls, respectively. The final concentrations were obtained by adding to the wells 7 µL of each solution, melittin or PBS, followed by 63 µL of RBCs to each well. The plate was sealed, shaken on a plate shaker for 20 s, incubated for one hour at 37 °C. Finally, it was centrifuged at 1,500 × g for 5 min at room temperature. 60 µL of supernatants were removed from all plate wells via a Bravo 384 robot and transferred to a flat-bottomed 384-well plate (Greiner UV-Star #7810801, Greiner Bio-One International, GMBH). The plate was centrifuged at 1,000 g for 1 min to remove air bubbles and optical density was measured at 405 nm using a plate reader. Percentage of haemolysis was calculated with the following equation: %haemolysis=(absorbance of test sample)-absorbance of diluent/absorbance of positive control-absorbance of diluent×100.

Data set [2] has as its system human erythrocytes. The experiment in a line: in vitro. It is filed as cell-based. Particulars: for IC10 haemolysis: human erythrocytes; for IC50: red cells of human. How it is done:
as §1, §2

Data set [3] can be described thus: in vitro. The class given is cell-based, dog. Particulars: dog. How it is done:
as §1, §2

The test system of data set [4] is canine erythrocytes. Nature of the data set: in vitro. It is filed as cell-based, dog. Conditions: for IC10 haemolysis: canine erythrocytes; for IC50: red cells of canine. The protocol:
as §1, §2

Data set [5] can be described thus: in vitro. The class given is cell-based, rat (Sprague–Dawley). Conditions: Sprague-Dawley, rat. The protocol: as §1, §2
Data set [6] relates to rat erythrocytes. The experiment in a line: in vitro. Conditions: for IC10 haemolysis: rat erythrocytes; for IC50: red cells of rat. It is filed as cell-based, rat (Sprague–Dawley). The protocol: as §1, §2
A short description of data set [7]: in vitro. It is filed as cell-based, bovine. Conditions: bovine. The protocol: as §1, §2
In data set [8] the test system is bovine erythrocytes. Nature of the data set: in vitro. Particulars: bovine erythrocytes. The class given is cell-based. The protocol:
as §1, §2

Data set [9] concerns Staphylococcus pseudintermedius. Conditions: cited from earlier work.
Data set [10] has as its system Staphylococcus aureus. More on the design: method as in PMID 30842436. Conditions: cited from earlier work.
The test system of data set [11] is Pseudomonas aeruginosa. More on the design: method as in PMID 30842436. Conditions: cited from earlier work.

In brackets after ≈: the same amount, converted by molar mass. Square brackets hold non-standard residues; d marks the D form. Peptide text beside a SMILES is read from it. N(1-naphthylmethyl)Gly = O=C(O)CNCc1cccc2ccccc12; 2Nal = N[C@@H](Cc1ccc2ccccc2c1)C(=O)O; Nphe = O=C(O)CNCc1ccccc1; NBuGly = CCCCNCC(=O)O; Nlys = NCCCCNCC(=O)O

For the compound `CC(C)C[C@H](NC(=O)[C@H](CCCCN)NC(=O)[C@H](Cc1cccc2ccccc12)NC(=O)[C@H](Cc1ccccc1)NC(=O)[C@@H](N)Cc1cccc2ccccc12)C(=O)N[C@@H](CCCCN)C(=O)N[C@@H](CCCCN)C(N)=O` [Compound 16, (1-Nal)Ala-Phe-(1-Nal)Ala-Lys-Leu-Lys-Lys] (HELM PEPTIDE1{[N[C@@H](Cc1cccc2ccccc12)C(=O)[*:2]].F.[O=C([C@H](Cc1cccc2ccccc12)N[*:1])[*:2]].K.L.K.K.[am]}$$$$V2.0), the hemolysis at 1 h, 150 µM in [1] turned out to be 55.5%; in data set [3], 27.7%; in data set [5], 11%; in [7], 30.6%. Also, the IC10 haemolysis turned out to be 47.4 µM in data set [2], 16.4 µM in data set [4], 145.0 µM in [6] and 45.2 µM in [8]. In addition, the IC50 in data set [2] is 134 µM; in data set [4], > 150 µM; in [6], > 150 µM. In [9], the “MIC against Staphylococcus pseudintermedius” value was 8 to 16 µg/mL. Moreover, the “MIC against Staphylococcus aureus” value in data set [10] was 16 to 32 µg/mL. The “MIC against Pseudomonas aeruginosa” value in [11] is recorded as 64 µg/mL (≈ 60.6 µM).

For the compound `CC(C)C[C@@H](NC(=O)[C@H](CCCCN)NC(=O)[C@H](CCCCN)NC(=O)[C@@H](N)CCCCN)C(=O)N[C@H](Cc1ccc2ccccc2c1)C(=O)N[C@H](Cc1ccc(O)cc1)C(=O)N[C@H](Cc1ccc2ccccc2c1)C(N)=O` [Compound 24, Lys-Lys-Lys-Leu-(2-Nal)Ala-Tyr-(2-Nal)Ala] (HELM PEPTIDE1{K.K.K.[dL].[O=C([C@@H](Cc1ccc2ccccc2c1)N[*:1])[*:2]].[dY].[O=C([C@@H](Cc1ccc2ccccc2c1)N[*:1])[*:2]].[am]}$$$$V2.0), the hemolysis at 1 h, 150 µM in data set [1] is 23.4%; in data set [3], 38.5%; in [5] it was < 8%; in data set [7], 29.8%. The IC10 haemolysis in data set [2] was 76.72 µM; in [4], 45.0 µM; in data set [6] it was > 150 µM; in data set [8] it was 89.6 µM. The IC50 in data set [2], in data set [4] and in data set [6] was > 150 µM in each case. In data set [9], the “MIC against Staphylococcus pseudintermedius” value is 4 to 8 µg/mL. The “MIC against Staphylococcus aureus” value in data set [10] was 16 to 32 µg/mL. Also, in data set [11], the “MIC against Pseudomonas aeruginosa” value was 32 µg/mL (≈ 29.8 µM).

Take `CC(C)C[C@H](NC(=O)[C@H](CCCCN)NC(=O)[C@H](CCCCN)NC(=O)[C@@H](N)CCCCN)C(=O)N[C@@H](Cc1ccc2ccccc2c1)C(=O)N[C@@H](Cc1ccc(O)cc1)C(=O)N[C@@H](Cc1ccc2ccccc2c1)C(N)=O` [Compound 17, Lys-Lys-Lys-Leu-(2-Nal)Ala-Tyr-(2-Nal)Ala] (HELM PEPTIDE1{K.K.K.L.[O=C([C@H](Cc1ccc2ccccc2c1)N[*:1])[*:2]].Y.[O=C([C@H](Cc1ccc2ccccc2c1)N[*:1])[*:2]].[am]}$$$$V2.0): the hemolysis at 1 h, 150 µM in [1] was determined as 78.1%; in data set [3] it was 100%; in data set [5] it was 100%; in [7], 19.9%. Besides, the IC10 haemolysis in data set [2] was determined as 61.1 µM; in [4], 59.6 µM; in [6] it was 74.7 µM; in [8], 81.4 µM. For the same compound, the IC50 in data set [2] is 109 µM; in data set [4], 87 µM; in data set [6], 87.7 µM. Further, in data set [9], the “MIC against Staphylococcus pseudintermedius” value is 16 µg/mL (≈ 14.9 µM). The “MIC against Staphylococcus aureus” value in [10] is listed as > 64 µg/mL. Moreover, the “MIC against Pseudomonas aeruginosa” value in [11] was > 64 µg/mL.

As to `CC(C)C[C@@H](NC(=O)[C@H](CCCCN)NC(=O)[C@H](CCCCN)NC(=O)[C@@H](N)CCCCN)C(=O)N[C@H](Cc1cccc2ccccc12)C(=O)N[C@H](Cc1ccc(O)cc1)C(=O)N[C@H](Cc1cccc2ccccc12)C(N)=O` [Compound 21, Lys-Lys-Lys-Leu-(1-Nal)Ala-Tyr-(1-Nal)Ala] (HELM PEPTIDE1{K.K.K.[dL].[O=C([C@@H](Cc1cccc2ccccc12)N[*:1])[*:2]].[dY].[O=C([C@@H](Cc1cccc2ccccc12)N[*:1])[*:2]].[am]}$$$$V2.0), the hemolysis at 1 h, 150 µM in data set [1] is < 8%; in [3] it was 19.9%; in data set [5] it was < 8%; in data set [7], 16%. For the same compound, the IC10 haemolysis is given as > 150 µM in [2], 48.2 µM in data set [4], > 150 µM in [6] and 109.7 µM in data set [8]. For the same compound, the IC50 in data set [2], in [4] and in data set [6] was > 150 µM in each case. For the same compound, the “MIC against Staphylococcus pseudintermedius” value in data set [9] is 2 to 4 µg/mL. Besides, in [10], the “MIC against Staphylococcus aureus” value is 32 to 64 µg/mL. In addition, the “MIC against Pseudomonas aeruginosa” value in data set [11] was 8 µg/mL (≈ 7.46 µM).

`CC(C)C[C@H](NC(=O)CN(CCCCN)C(=O)CN(CCCCN)C(=O)CNCCCCN)C(=O)N[C@@H](Cc1ccc2ccccc2c1)C(=O)N[C@@H](Cc1ccccc1)C(=O)N[C@@H](Cc1ccc2ccccc2c1)C(N)=O` [Compound 23, N-Lys-N-Lys-N-Lys-Leu-(2-Nal)Ala-Phe-(2-Nal)Ala] (H-[Nlys][Nlys][Nlys]L[2Nal]F[2Nal]-NH2): the hemolysis at 1 h, 150 µM is 35.9% in [1], 35.1% in data set [3], < 8% in data set [5] and 11.1% in data set [7]. In addition, in data set [2], the “Haemolytic activity (in words)” value is “not highly lytic”. Besides, the IC10 haemolysis in data set [2] is listed as 98.7 µM; in data set [4], 43.3 µM; in data set [6], > 150 µM; in [8], 145.8 µM. Also, the IC50 in data set [2], in data set [4] and in [6] was > 150 µM each time. Further, the “MIC against Staphylococcus pseudintermedius” value in [9] is 2 to 4 µg/mL. The “MIC against Staphylococcus aureus” value in data set [10] is reported as 32 µg/mL (≈ 30.3 µM). Further, the “MIC against Pseudomonas aeruginosa” value in [11] is 32 µg/mL (≈ 30.3 µM).

With `CCCCN(CC(=O)N[C@@H](CCCCN)C(=O)N(CC(=O)N(CC(=O)N(CC(N)=O)Cc1cccc2ccccc12)Cc1ccccc1)Cc1cccc2ccccc12)C(=O)[C@H](CCCCN)NC(=O)[C@@H](N)CCCCN` [Compound 14, Lys-Lys-(N-Bu)Gly-Lys-(N1-Nal)Gly-(N-Phe)Gly-(N1-Nal)Gly] (H-KK[NBuGly]K[N(1-naphthylmethyl)Gly][Nphe][N(1-naphthylmethyl)Gly]-NH2), the hemolysis at 1 h, 150 µM stood at 66.4% in data set [1], 28.1% in data set [3], 31.6% in data set [5] and 13.9% in data set [7]. Moreover, the “Haemolytic activity (in words)” value in data set [2] is “amongst the top five most haemolytic compounds”. Further, the IC10 haemolysis in data set [2] was found to be 54.0 µM; in [4], 26.23 µM; in data set [6] it was 93.1 µM; in data set [8], 123.9 µM. Moreover, the IC50 in data set [2] was 118 µM; in [4], > 150 µM; in data set [6], > 150 µM. Further, in [9], the “MIC against Staphylococcus pseudintermedius” value is 4 µg/mL (≈ 3.79 µM). Moreover, the “MIC against Staphylococcus aureus” value in [10] was 8 to 16 µg/mL. In addition, the “MIC against Pseudomonas aeruginosa” value in [11] was 32 µg/mL (≈ 30.3 µM).
